Measurements from the NIST ThermoML archive (doi:10.1016/j.jct.2015.02.023).
± gives the expanded uncertainty stated by the source.

Experiment: activity coefficient (dimensionless); of the first substance listed, at infinite dilution; xn = mol fraction of the nth substance listed
Settings: 101.33 kPa, Liquid, Chromatography, x1 = 0

Row | Compound | activity coefficient (313.15 K) | activity coefficient (323.15 K) | activity coefficient (353.15 K) | activity coefficient (373.15 K) | activity coefficient (333.15 K) | activity coefficient (343.15 K)
1 | CCCCCCCCCC [decane] + CO[PH](=O)[O-].Cn1cc[n+](C)c1 | 1220 ± 84 | 1210 ± 84 |  |  |  | 
2 | CCCO [propan-1-ol] + CCn1cc[n+](C)c1.CO[PH](=O)[O-] |  |  | 0.207 ± 0.029 | 0.214 ± 0.029 |  | 
3 | Cc1ccccc1C [1,2-dimethylbenzene] + CCn1cc[n+](C)c1.CO[PH](=O)[O-] | 14.4 ± 1 |  | 16.2 ± 1.1 | 18.8 ± 1.3 | 15 ± 1 | 
4 | CCO [ethanol] + CCn1cc[n+](C)c1.CO[PH](=O)[O-] |  |  | 0.156 ± 0.029 | 0.169 ± 0.029 | 0.148 ± 0.029 | 
5 | CCCCCCCCCCC [undecane] + CO[PH](=O)[O-].Cn1cc[n+](C)c1 | 1530 ± 110 | 1470 ± 100 |  |  | 1400 ± 97 | 1330 ± 92
6 | CC#N [acetonitrile] + CO[PH](=O)[O-].Cn1cc[n+](C)c1 | 1.1 ± 0.07 | 1.11 ± 0.07 |  |  | 1.12 ± 0.07 | 1.12 ± 0.07
7 | c1ccncc1 [pyridine] + CCn1cc[n+](C)c1.CO[PH](=O)[O-] | 1.77 ± 0.12 |  | 1.95 ± 0.13 | 2 ± 0.14 | 1.84 ± 0.12 | 
8 | CCC(=O)CC [pentan-3-one] + CCn1cc[n+](C)c1.CO[PH](=O)[O-] | 5.77 ± 0.39 |  | 6 ± 0.41 | 6.17 ± 0.42 | 5.88 ± 0.4 | 
9 | CCN(CC)CC [triethylamine] + CCn1cc[n+](C)c1.CO[PH](=O)[O-] | 30.2 ± 2.1 |  |  |  | 48 ± 3.3 | 
10 | CC1CCCCC1 [methylcyclohexane] + CO[PH](=O)[O-].Cn1cc[n+](C)c1 | 257 ± 18 |  |  |  |  | 
11 | CCCCCCCCCCCCCC [tetradecane] + CCn1cc[n+](C)c1.CO[PH](=O)[O-] | 3490 ± 240 |  | 2610 ± 180 | 2270 ± 160 | 3010 ± 210 | 
12 | C[N+](=O)[O-] [nitromethane] + CCn1cc[n+](C)c1.CO[PH](=O)[O-] | 0.75 ± 0.049 |  | 0.831 ± 0.054 | 0.873 ± 0.056 | 0.787 ± 0.051 | 
13 | CO [methanol] + CO[PH](=O)[O-].Cn1cc[n+](C)c1 |  |  |  |  |  | 0.07 ± 0.03
14 | CCC(=O)CC [pentan-3-one] + CO[PH](=O)[O-].Cn1cc[n+](C)c1 | 10.2 ± 0.7 | 10.1 ± 0.7 |  |  | 10.1 ± 0.7 | 10 ± 0.7
15 | CCC(C)=O [butanone] + CCn1cc[n+](C)c1.CO[PH](=O)[O-] | 3.49 ± 0.24 |  | 2.56 ± 0.17 | 2.37 ± 0.16 | 3 ± 0.2 | 
16 | C#CCCCCC [1-heptyne] + CCn1cc[n+](C)c1.CO[PH](=O)[O-] | 10.2 ± 0.7 |  | 11.8 ± 0.8 | 12 ± 0.8 | 11.1 ± 0.8 | 
17 | CO [methanol] + CCn1cc[n+](C)c1.CO[PH](=O)[O-] |  |  | 0.078 ± 0.03 | 0.088 ± 0.03 | 0.072 ± 0.03 | 
18 | CC#N [acetonitrile] + CCn1cc[n+](C)c1.CO[PH](=O)[O-] | 1.08 ± 0.07 |  | 1.19 ± 0.08 | 1.25 ± 0.08 | 1.11 ± 0.07 | 
19 | Cc1ccccc1 [toluene] + CO[PH](=O)[O-].Cn1cc[n+](C)c1 | 11.5 ± 0.78 | 11.4 ± 0.78 |  |  | 11.3 ± 0.77 | 11.2 ± 0.77
20 | Cc1ccc(C)cc1 [1,4-dimethylbenzene] + CO[PH](=O)[O-].Cn1cc[n+](C)c1 | 23.4 ± 1.6 | 23.4 ± 1.6 |  |  | 22.7 ± 1.6 | 22 ± 1.5
21 | C#CCCCCC [1-heptyne] + CO[PH](=O)[O-].Cn1cc[n+](C)c1 | 22 ± 1.5 | 23.5 ± 1.6 |  |  | 23.5 ± 1.6 | 24.9 ± 1.7
22 | CCc1ccccc1 [ethylbenzene] + CCn1cc[n+](C)c1.CO[PH](=O)[O-] | 11.4 ± 0.8 |  | 11.7 ± 0.8 | 11.9 ± 0.8 | 11.6 ± 0.8 | 
23 | ClCCl [dichloromethane] + CCn1cc[n+](C)c1.CO[PH](=O)[O-] | 0.502 ± 0.038 |  | 0.798 ± 0.052 |  | 0.642 ± 0.044 | 
24 | CCCC(C)=O [pentan-2-one] + CO[PH](=O)[O-].Cn1cc[n+](C)c1 | 10.6 ± 0.7 | 10.5 ± 0.7 |  |  | 10.3 ± 0.7 | 10.1 ± 0.7
25 | C1CCCCCC1 [cycloheptane] + CO[PH](=O)[O-].Cn1cc[n+](C)c1 | 250 ± 17 |  |  |  |  | 
26 | c1ccsc1 [thiophene] + CCn1cc[n+](C)c1.CO[PH](=O)[O-] | 1.99 ± 0.14 |  | 2.5 ± 0.17 | 2.64 ± 0.18 | 2.16 ± 0.15 | 

Row | Compound | activity coefficient (313.15 K) | activity coefficient (323.15 K) | activity coefficient (353.15 K) | activity coefficient (373.15 K) | activity coefficient (333.15 K) | activity coefficient (343.15 K)
27 | ClC(Cl)Cl [trichloromethane] + CCn1cc[n+](C)c1.CO[PH](=O)[O-] | 0.277 ± 0.03 |  | 0.451 ± 0.036 | 0.544 ± 0.04 | 0.358 ± 0.033 | 
28 | CCCCCCCCCC [decane] + CCn1cc[n+](C)c1.CO[PH](=O)[O-] | 882 ± 61 |  | 582 ± 40 |  | 704 ± 48 | 
29 | CCCCCCCCC [nonane] + CCn1cc[n+](C)c1.CO[PH](=O)[O-] | 617 ± 42 |  |  |  | 485 ± 33 | 
30 | CCCCCCCCCCCCCC [tetradecane] + CO[PH](=O)[O-].Cn1cc[n+](C)c1 | 3560 ± 250 | 3220 ± 220 |  |  | 2980 ± 210 | 2890 ± 200
31 | ClC(Cl)(Cl)Cl [tetrachloromethane] + CO[PH](=O)[O-].Cn1cc[n+](C)c1 | 6.57 ± 0.45 | 6.83 ± 0.47 |  |  | 7.03 ± 0.48 | 
32 | C1COCCO1 [1,4-dioxane] + CO[PH](=O)[O-].Cn1cc[n+](C)c1 | 3.73 ± 0.25 | 3.72 ± 0.25 |  |  | 3.69 ± 0.25 | 3.66 ± 0.25
33 | CCCCCCCCCCCC [dodecane] + CCn1cc[n+](C)c1.CO[PH](=O)[O-] | 1740 ± 120 |  | 1300 ± 90 | 915 ± 63 | 1540 ± 110 | 
34 | C1CCCCCC1 [cycloheptane] + CCn1cc[n+](C)c1.CO[PH](=O)[O-] | 98.8 ± 6.8 |  | 303 ± 21 | 438 ± 30 | 180 ± 12 | 
35 | ClC(Cl)Cl [trichloromethane] + CO[PH](=O)[O-].Cn1cc[n+](C)c1 | 0.39 ± 0.03 | 0.43 ± 0.04 |  |  | 0.48 ± 0.04 | 0.51 ± 0.04
36 | ClC(Cl)(Cl)Cl [tetrachloromethane] + CCn1cc[n+](C)c1.CO[PH](=O)[O-] | 4.38 ± 0.3 |  |  |  | 4.96 ± 0.34 | 
37 | C#CCCCC [1-hexyne] + CO[PH](=O)[O-].Cn1cc[n+](C)c1 | 12.7 ± 0.87 | 13 ± 0.88 |  |  | 13.4 ± 0.91 | 13.7 ± 0.93
38 | C[N+](=O)[O-] [nitromethane] + CO[PH](=O)[O-].Cn1cc[n+](C)c1 | 0.8 ± 0.05 | 0.81 ± 0.05 |  |  | 0.82 ± 0.05 | 0.83 ± 0.05
39 | CCC[N+](=O)[O-] [1-nitropropane] + CO[PH](=O)[O-].Cn1cc[n+](C)c1 | 3.41 ± 0.23 | 3.35 ± 0.23 |  |  | 3.29 ± 0.22 | 3.29 ± 0.22
40 | C#CCCCC [1-hexyne] + CCn1cc[n+](C)c1.CO[PH](=O)[O-] | 6.24 ± 0.43 |  | 7.14 ± 0.49 | 7.56 ± 0.52 | 6.73 ± 0.46 | 
41 | Cc1ccc(C)cc1 [1,4-dimethylbenzene] + CCn1cc[n+](C)c1.CO[PH](=O)[O-] | 16.9 ± 1.2 |  | 19.3 ± 1.3 | 21.9 ± 1.5 | 18 ± 1.2 | 
42 | CCCCCCCCCCCCC [tridecane] + CO[PH](=O)[O-].Cn1cc[n+](C)c1 | 2380 ± 160 | 2220 ± 150 |  |  | 2160 ± 150 | 2120 ± 150
43 | CCCCCCCCC [nonane] + CO[PH](=O)[O-].Cn1cc[n+](C)c1 | 1070 ± 74 | 1050 ± 72 |  |  |  | 
44 | C=O [methanal] + CCn1cc[n+](C)c1.CO[PH](=O)[O-] | 0.059 |  | 0.115 ± 0.03 | 0.151 ± 0.029 | 0.084 ± 0.03 | 
45 | CCCCCCCCCCCCC [tridecane] + CCn1cc[n+](C)c1.CO[PH](=O)[O-] | 2560 ± 180 |  | 1850 ± 130 | 1300 ± 89 | 2130 ± 150 | 
46 | c1ccccc1 [benzene] + CO[PH](=O)[O-].Cn1cc[n+](C)c1 | 5.69 ± 0.39 | 5.58 ± 0.38 |  |  | 5.52 ± 0.38 | 5.43 ± 0.37
47 | C1CCCCC1 [cyclohexane] + CO[PH](=O)[O-].Cn1cc[n+](C)c1 | 129 ± 9 |  |  |  |  | 
48 | C1CCCCC1 [cyclohexane] + CCn1cc[n+](C)c1.CO[PH](=O)[O-] | 89 ± 6 |  |  |  | 43.1 ± 3 | 
49 | CCO [ethanol] + CO[PH](=O)[O-].Cn1cc[n+](C)c1 |  |  |  |  |  | 0.16 ± 0.03
50 | c1ccsc1 [thiophene] + CO[PH](=O)[O-].Cn1cc[n+](C)c1 | 2.47 ± 0.17 | 2.54 ± 0.17 |  |  | 2.58 ± 0.18 | 2.6 ± 0.18
51 | Cc1ccccc1C [1,2-dimethylbenzene] + CO[PH](=O)[O-].Cn1cc[n+](C)c1 | 19.2 ± 1.3 | 19.1 ± 1.3 |  |  | 18.6 ± 1.3 | 18.5 ± 1.3
52 | ClCCl [dichloromethane] + CO[PH](=O)[O-].Cn1cc[n+](C)c1 | 0.57 ± 0.04 | 0.65 ± 0.04 |  |  | 0.72 ± 0.05 | 0.77 ± 0.05
